Measurements: US12702676B2, “Fosfomycin dosing regimens” (priority 2017, dated 2026)
Values after ≈ are worked out from the molar mass of the structure shown. Like-named read-outs stand apart in the source and are kept apart here.

Key:
Enterobacteriaceae [1] = test: Non-clinical total-drug % T>RIC targets for efficacy
Text: Emphasis was placed on the assessment of PK-PD target attainment results for AUC:MIC ratio and % T>RIC targets associated with net bacterial stasis.

[2] = Population PK analysis of ZTI-01, pooled Phase 1 healthy subjects and Phase 2/3 cUTI/AP patients; format: in vivo, human; details: for Baseline CLcr50 / Hill coefficient: CL model
Text: Methods: Two clinical studies have been conducted as part of the development of ZTI-01: a Phase 1 study in healthy subjects (ZTI-01-NIH13-0064) and a Phase 2/3 study in hospitalized patients with complicated urinary tract infections (ZTI-01-200). A PPK model, originally developed using Phase 1 data and an empirical relationship between FOS clearance (CLt) and creatinine clearance (CLcr) [Microbe 2017 Abstr. P1134], was refined using pooled data from healthy subjects and patients with cUTI, including acute pyelonephritis.
The PPK model was developed in NONMEM 7.2. In the Phase 1 study, 28 healthy subjects who received ZTI-01 as single (1 and 8 g infused over 1 hour) IV doses in crossover fashion provided plasma and urine samples for FOS concentration determination over 24 hours. Patients from the Phase 2/3 study (ZEUS, NCT02753946) received ZTI-01 at 6 g every 8 hours, with dosage adjustment for patients with renal impairment (adjusted for CLcr≤50 mL/min). Blood samples for PK (n=5 per patient) were collected on Day 1 and on either Days 3, 4, or 5. Model development involved refinement of the previous CLt:CLcr relationship using the pooled data and a full covariate analysis to identify other patient descriptors associated with the interindividual variability (IIV) in FOS PK. Model qualification included standard goodness-of-fit metrics and visual predictive check plots.
For the PPK model refinement, previous structural population PK model was fit to the pooled Phase 1 and 2/3 data. Covariate analyses were conducted using forward selection and backward elimination. The final model was qualified using visual predictive checks and non-parametric bootstrap procedures. Individual, post-hoc fosfomycin exposures were calculated for each patient using predicted plasma fosfomycin concentration-time data for the first 48 hours of therapy.

[3] = Pharmacokinetics in specific populations (hemodialysis, hepatic, demographics); format: in vivo, human
[4] = tested on: Acinetobacter baumannii-calcoaceticus complex; test: Case treated with the dosing regimen of the invention; format: in vivo; details: one case
Text: In addition to the above list, it was also observed that the dosing regimen of the present invention provided beneficial results for two uncommon and rarely treated strains. In one case, the dosing regimen of the present invention was used to administer appropriate dosages of fosfomycin, resulting in the eradication of the often resistant, Gram negative Acinetobacter baumannii-calcoaceticus complex.

[5] = tested on: Raoultella ornithinolytica; test: Case treated with the dosing scheme of the invention; format: in vivo; details: one case
Enterobacteriaceae [6] = details: cited from earlier work; for Total-drug AUC:MIC ratio target: Enterobacteriaceae; for Median total-drug AUC:MIC ratio target: neutropenic murine-thigh infection model (Lepak et al.)
[7] = tested on: Enterobacteriaceae isolates; details: 1,021 Enterobacteriaceae isolates collected from US medical centers; cited from earlier work
[8] = tested on: acute pyelonephritis pathogens; details: Ode et al. study; dosing regimen 8 g bid; cited from earlier work
[9] = 1-log10 CFU reduction from baseline
[10] = final population PK model estimate

## C[C@@H]1O[C@@H]1P(=O)(O)O [fosfomycin]
Enterobacteriaceae [1]; [9]
  Total-drug % T > RIC target: 20.9%
Enterobacteriaceae [1]; 2-log10 CFU reduction from baseline
  Total-drug % T > RIC target: 32.8%
Enterobacteriaceae [1]; Net bacterial stasis
  Total-drug % T > RIC target: 11.9%
[2]; bootstrap mean (N = 200)
  Baseline CLcr50: 66.3 mL/min/1.73 m^2
  Hill coefficient: 2.6
  CLd1 Coefficient: 4.36 L/h
  CLd1 Proportional increase for AP and cUTI patients: 1.28
  CLd2 Coefficient: 0.351 L/h
  CLe maximum: 9.02 L/h
  Covariance between CL and Vc: 0.0707
  Covariance between CL and Vp1: 0.134
  Covariance between CLd1 and Vp1: 0.173
  Plasma Residual variability (σ^2) CCV component: 0.0196
  Urine Residual variability (σ^2) CCV component: 0.0793
  Vc Coefficient: 17.7 L
  Vc-BSA power: 1.72
  Vp1-BSA power: 2.73
  Vp1 Coefficient: 6.11 L
  Vp1 Proportional increase for AP and cUTI patients: 0.721
  Vp2 Coefficient: 1.74 L
  ω^2 for Vc: 0.174
  ω^2 for Vp1: 0.516
  ω^2 tor CLd1: 0.203
[2]; bootstrap median (N = 200)
  Baseline CLcr50: 65.6 mL/min/1.73 m^2
  Hill coefficient: 2.59
  CLd1 Coefficient: 4.2 L/h
  CLd1 Proportional increase for AP and cUTI patients: 1.15
  CLd2 Coefficient: 0.346 L/h
  CLe maximum: 8.87 L/h
  Covariance between CL and Vc: 0.0704
  Covariance between CL and Vp1: 0.131
  Covariance between CLd1 and Vp1: 0.166
  Plasma Residual variability (σ^2) CCV component: 0.0194
  Urine Residual variability (σ^2) CCV component: 0.079
  Vc Coefficient: 17.7 L
  Vc-BSA power: 1.7
  Vp1-BSA power: 2.73
  Vp1 Coefficient: 6.03 L
  Vp1 Proportional increase for AP and cUTI patients: 0.706
  Vp2 Coefficient: 1.72 L
  ω^2 for Vc: 0.172
  ω^2 for Vp1: 0.508
  ω^2 tor CLd1: 0.199
[2]; [10]
  Baseline CLcr50: 65 mL/min/1.73 m^2
  Hill coefficient: 2.56
  CLd1 Coefficient: 4.15 L/h
  CLd1 Proportional increase for AP and cUTI patients: 1.24
  CLd2 Coefficient: 0.349 L/h
  CLe maximum: 8.87 L/h
  Covariance between CL and Vc: 0.07213
  Covariance between CL and Vp1: 0.1296
  Covariance between CLd1 and Vp1: 0.1853
  Plasma Residual variability (σ^2) CCV component: 0.0195
  Urine Residual variability (σ^2) CCV component: 0.0795
  Vc Coefficient: 17.6 L
  Vc-BSA power: 1.76
  Vp1-BSA power: 2.72
  Vp1 Coefficient: 5.99 L
  Vp1 Proportional increase for AP and cUTI patients: 0.729
  Vp2 Coefficient: 1.73 L
  ω^2 for Vc: 0.175
  ω^2 for Vp1: 0.502
  ω^2 tor CLd1: 0.215
[2]; geometric mean, infected Phase 2/3 patients (n = 214), ZTI-01-200, population PK model fit
  Cmin: 30.0 µg/mL
[2]; human, in vivo, 6 g, geometric mean, infected Phase 2/3 patients (n = 214), ZTI-01-200, population PK model fit
  Cmax: 364 µg/mL
[2]; human, in vivo, 6 g, geometric mean, infected Phase 2/3 patients (n = 214), ZTI-01-200, population PK model fit, read-out: CL (converted)
  clearance: 99.7 mL/min
[2]; human, in vivo, 6 g, geometric mean, infected Phase 2/3 patients (n = 214), ZTI-01-200, population PK model fit, read-out: VSS
  Vd: 30.9 L
[2]; human, in vivo, 6 g, geometric mean, infected Phase 2/3 patients (n = 214), ZTI-01-200, population PK model fit, read-out: t1/2, α (converted)
  half-life: 0.402 h
[2]; human, in vivo, 6 g, geometric mean, infected Phase 2/3 patients (n = 214), ZTI-01-200, population PK model fit, read-out: t1/2, β (converted)
  half-life: 2.67 h
[2]; human, in vivo, 6 g, geometric mean, infected Phase 2/3 patients (n = 214), ZTI-01-200, population PK model fit, read-out: t1/2, γ (converted)
  half-life: 4.99 h
[2]; human, in vivo, 6 g, geometric mean, infected Phase 2/3 patients (n = 214), ZTI-01-200, doses by baseline renal function, population PK model fit, read-out: AUC0-24
  AUC(0-t): 2490 µg·h/mL
[2]; human, in vivo, bootstrap mean (N = 200), read-out: Non-renal CL (converted)
  clearance: 27 mL/min
[2]; human, in vivo, bootstrap median (N = 200), read-out: Non-renal CL (converted)
  clearance: 27.2 mL/min
[2]; human, in vivo, final population PK model estimate, read-out: Non-renal CL (converted)
  clearance: 26.8 mL/min
[3]; administered prior to hemodialysis in patients on periodic or chronic hemodialysis
  fosfomycin dose removed by hemodialysis: 61-79%
[3]; age 18 to 89 years, adjusted for renal function
  differences in pharmacokinetics based on sex, body weight/body surface area, race/ethnicity or age: No clinically significant differences
[3]; in vivo
  metabolism through the liver: not metabolized through the liver
[4]
  outcome against Acinetobacter baumannii-calcoaceticus complex: eradication
[5]
  outcome against Raoultella ornithinolytica: successfully eradicated
Enterobacteriaceae [6]; [9]
  Total-drug AUC:MIC ratio target: 41.6
Enterobacteriaceae [6]; 1 log10 CFU reduction from baseline
  Median total-drug AUC:MIC ratio target: 41.6
Enterobacteriaceae [6]; Net bacterial stasis
  Total-drug AUC:MIC ratio target: 19.1
  Median total-drug AUC:MIC ratio target: 19.1
[7]
  MIC50: 4 µg/mL (≈ 29 µM)
  MIC90: 16 µg/mL (≈ 116 µM)
[8]
  effective (patients with AP): 44%
